Test results: patent publication US20240254119A1 (THIRD HARMONIC BIO, INC., priority 2022, published 2024)
pIC50: −log10 of the molar value.

Assays:
wtKIT [1] = molecular target: T1, wtKIT (Homo sapiens, UniProt P10721); assay: HTRF biochemical assay, wtKIT (phosphorylation of a peptide substrate); conditions: Table 4
T1 construct: 1888289AM in the reaction mixtures
Procedure, shortened: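 wtKIT (5.0 nM) phosphorylating 1 µM FAM-labelled peptide with 400 µM ATP and 10 mM MnCl2 in 100 mM HEPES pH 7.5, 1% DMSO, 3 h at 25 °C. EDTA quench; phosphopeptide detected with anti-phosphotyrosine antibody by HTRF. Enzyme titrated for 10-20% substrate conversion.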

wtKIT [2] = molecular target: T1, wtKIT; assay: Caliper biochemical assay, wtKIT; conditions: Table 6, read-out: KIT Biochemical IC50 avg
Procedure, shortened: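 Enzyme (5.0 nM wtKIT), 1 μM FAM-labelled peptide, 400 μM ATP and 10 mM MnCl2 in HEPES pH 7.5 with 1% DMSO, incubated 3 h at 25° C. EDTA quench; substrate and phosphoproduct separated by microfluidic electrophoresis and quantified by fluorescence.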

CSF-1R = molecular target: T2, CSF-1R (Homo sapiens, UniProt P07333); assay: Caliper biochemical assay, CSF-1R; conditions: Table 6
T2 construct: purchased Invitrogen PV3249 (lot 662393N)
Description: (§1) Enzyme, substrate, and cofactors (ATP and Mn^2+) are combined in a well of a microtiter plate and incubated for 3 hours at 25° C. At the end of the incubation, the reaction is quenched by the addition of an EDTA-containing buffer. Substrate and product are separated electrophoretically using the microfluidic-based LabChip 3000 Drug Discovery System from Caliper Life Sciences* and quantitated by fluorescence intensity.
(§2) The substrate used in the CSF-1R and PDGFRα assay is FAM-[…]-CONH2 (FAM is carboxyfluorescein). Peptide should be >95% purity. The substrate for the KIT assay is FAM-[…]-NH2.
(§3) • 1. To a well of a 384-well plate add 5 μL of 2× enzyme buffer (or control) • 2. Add 100 nL of 100× compound. • 3. Add 5 μL of 2× substrate buffer. • 4. Incubate plate at 25° C. for 3 hours. • 5. Add 10 uL of […]. • 6. Read plate LabChip 3000 Drug Discovery System
(§4) • 3 hours at 25° C. where 100% Inhibitor: No enzyme.

PDGFRα = molecular target: T3, PDGFRα (Homo sapiens, UniProt P16234); assay: Caliper biochemical assay, PDGFRα; conditions: Table 6
T3 construct: purchased Millipore 14-467 (lot 26321_ACTI)
Description: as §1, §2, §3, §4

[3] = molecular target: T4, BCRP (BCRP-MDCKII monolayer) (Homo sapiens, UniProt Q9UNQ0); assay: MDCKII-BCRP bidirectional transport assay; format: in vitro ADME; conditions: for MDCK-BCRP: Papp A-B: apical to basolateral
T4 construct: host or cells: MDCKII (canine kidney) cells
T4 sequence (Q9UNQ0 1-655): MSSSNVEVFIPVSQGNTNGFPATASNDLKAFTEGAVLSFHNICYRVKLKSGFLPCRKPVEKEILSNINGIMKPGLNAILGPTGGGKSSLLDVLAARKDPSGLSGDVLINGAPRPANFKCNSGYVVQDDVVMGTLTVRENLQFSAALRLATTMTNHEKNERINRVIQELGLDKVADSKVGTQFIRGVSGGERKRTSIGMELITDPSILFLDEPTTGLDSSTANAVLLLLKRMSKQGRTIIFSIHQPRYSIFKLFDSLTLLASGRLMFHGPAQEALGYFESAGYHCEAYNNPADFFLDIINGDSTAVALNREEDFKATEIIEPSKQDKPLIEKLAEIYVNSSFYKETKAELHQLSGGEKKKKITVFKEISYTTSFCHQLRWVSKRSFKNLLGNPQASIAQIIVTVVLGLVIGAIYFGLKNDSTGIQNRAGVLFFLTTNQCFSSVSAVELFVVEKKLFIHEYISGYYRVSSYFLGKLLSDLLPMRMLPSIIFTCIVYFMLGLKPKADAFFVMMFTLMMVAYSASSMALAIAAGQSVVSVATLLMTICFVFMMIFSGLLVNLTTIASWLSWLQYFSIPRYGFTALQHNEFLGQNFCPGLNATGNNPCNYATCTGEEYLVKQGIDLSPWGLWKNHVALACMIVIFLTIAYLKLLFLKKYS
Procedure, shortened: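 Bidirectional A→B and B→A transport across PreadyPort BCRP-MDCKII monolayers (days 12–15) was run in duplicate for 120 min at 37° C, 5% CO2 after a 15 min preincubation. Compound levels were measured by LC-MS/MS. Papp and recovery were calculated, with efflux ratio indicating transporter engagement.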

Kinetic solubility assay = format: physicochemical; conditions: kinetic solubility, 50 mM PB (pH 7.4), shaken 24 hours at RT
Procedure, shortened: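 Test compounds from 10 mM DMSO stock were diluted in 50 mM phosphate buffer, pH 7.4, and shaken for 24 h at RT. After PTFE filtration and centrifugation, filtrate concentration was quantified by UPLC-UV/HPLC-UV against a standard curve.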

T1 sequence (P10721 26-976): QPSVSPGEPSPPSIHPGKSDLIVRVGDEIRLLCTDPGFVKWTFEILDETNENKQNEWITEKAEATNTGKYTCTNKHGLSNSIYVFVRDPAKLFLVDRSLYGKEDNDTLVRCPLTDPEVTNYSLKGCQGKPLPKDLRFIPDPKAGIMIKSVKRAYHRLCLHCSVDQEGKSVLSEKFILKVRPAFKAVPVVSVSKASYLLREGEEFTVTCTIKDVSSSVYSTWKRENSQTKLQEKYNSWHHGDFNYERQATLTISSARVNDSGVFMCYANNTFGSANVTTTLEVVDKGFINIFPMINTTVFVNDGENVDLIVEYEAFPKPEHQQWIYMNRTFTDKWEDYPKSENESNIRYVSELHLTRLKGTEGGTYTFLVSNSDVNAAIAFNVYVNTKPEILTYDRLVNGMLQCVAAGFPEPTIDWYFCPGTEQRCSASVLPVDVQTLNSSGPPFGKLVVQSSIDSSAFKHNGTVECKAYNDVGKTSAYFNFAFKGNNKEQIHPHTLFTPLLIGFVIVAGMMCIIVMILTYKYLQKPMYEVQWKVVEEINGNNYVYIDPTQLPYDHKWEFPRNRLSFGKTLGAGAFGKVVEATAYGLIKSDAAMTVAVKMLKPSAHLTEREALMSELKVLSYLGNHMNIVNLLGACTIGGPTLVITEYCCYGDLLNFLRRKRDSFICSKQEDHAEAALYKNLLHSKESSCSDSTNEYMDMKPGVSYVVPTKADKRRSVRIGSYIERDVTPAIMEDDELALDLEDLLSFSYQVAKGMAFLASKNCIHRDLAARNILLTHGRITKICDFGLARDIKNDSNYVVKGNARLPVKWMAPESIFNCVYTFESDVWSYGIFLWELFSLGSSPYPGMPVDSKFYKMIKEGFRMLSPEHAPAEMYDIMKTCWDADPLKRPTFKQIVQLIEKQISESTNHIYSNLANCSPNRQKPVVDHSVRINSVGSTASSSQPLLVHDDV
T3 sequence (P16234 24-1089): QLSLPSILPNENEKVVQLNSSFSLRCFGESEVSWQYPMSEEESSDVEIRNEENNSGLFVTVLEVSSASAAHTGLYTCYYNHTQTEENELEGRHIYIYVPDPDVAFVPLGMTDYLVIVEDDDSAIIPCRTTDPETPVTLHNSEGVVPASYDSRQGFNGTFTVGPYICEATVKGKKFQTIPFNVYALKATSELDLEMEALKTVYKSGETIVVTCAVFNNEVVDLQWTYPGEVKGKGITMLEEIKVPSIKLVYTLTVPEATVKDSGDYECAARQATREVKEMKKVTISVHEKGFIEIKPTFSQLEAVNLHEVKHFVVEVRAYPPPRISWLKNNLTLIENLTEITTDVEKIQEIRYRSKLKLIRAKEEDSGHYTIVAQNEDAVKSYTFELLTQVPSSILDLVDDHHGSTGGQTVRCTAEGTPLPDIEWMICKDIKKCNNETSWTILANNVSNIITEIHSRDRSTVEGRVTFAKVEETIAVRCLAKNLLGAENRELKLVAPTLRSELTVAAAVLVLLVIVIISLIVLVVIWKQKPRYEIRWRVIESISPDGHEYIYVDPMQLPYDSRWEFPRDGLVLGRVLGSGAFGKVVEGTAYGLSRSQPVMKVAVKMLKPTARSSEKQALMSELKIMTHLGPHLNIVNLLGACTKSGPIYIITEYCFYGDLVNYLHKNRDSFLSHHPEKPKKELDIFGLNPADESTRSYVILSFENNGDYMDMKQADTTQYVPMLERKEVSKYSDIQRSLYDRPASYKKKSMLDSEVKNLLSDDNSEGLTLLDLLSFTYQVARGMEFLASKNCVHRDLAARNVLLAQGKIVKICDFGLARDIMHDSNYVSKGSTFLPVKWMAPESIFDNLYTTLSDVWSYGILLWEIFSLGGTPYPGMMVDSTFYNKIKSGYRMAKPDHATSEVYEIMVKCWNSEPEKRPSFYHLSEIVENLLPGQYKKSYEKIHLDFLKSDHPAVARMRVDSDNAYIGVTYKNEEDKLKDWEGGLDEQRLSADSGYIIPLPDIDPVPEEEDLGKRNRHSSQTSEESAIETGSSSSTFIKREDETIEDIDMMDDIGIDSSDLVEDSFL
T2 sequence (P07333 20-972): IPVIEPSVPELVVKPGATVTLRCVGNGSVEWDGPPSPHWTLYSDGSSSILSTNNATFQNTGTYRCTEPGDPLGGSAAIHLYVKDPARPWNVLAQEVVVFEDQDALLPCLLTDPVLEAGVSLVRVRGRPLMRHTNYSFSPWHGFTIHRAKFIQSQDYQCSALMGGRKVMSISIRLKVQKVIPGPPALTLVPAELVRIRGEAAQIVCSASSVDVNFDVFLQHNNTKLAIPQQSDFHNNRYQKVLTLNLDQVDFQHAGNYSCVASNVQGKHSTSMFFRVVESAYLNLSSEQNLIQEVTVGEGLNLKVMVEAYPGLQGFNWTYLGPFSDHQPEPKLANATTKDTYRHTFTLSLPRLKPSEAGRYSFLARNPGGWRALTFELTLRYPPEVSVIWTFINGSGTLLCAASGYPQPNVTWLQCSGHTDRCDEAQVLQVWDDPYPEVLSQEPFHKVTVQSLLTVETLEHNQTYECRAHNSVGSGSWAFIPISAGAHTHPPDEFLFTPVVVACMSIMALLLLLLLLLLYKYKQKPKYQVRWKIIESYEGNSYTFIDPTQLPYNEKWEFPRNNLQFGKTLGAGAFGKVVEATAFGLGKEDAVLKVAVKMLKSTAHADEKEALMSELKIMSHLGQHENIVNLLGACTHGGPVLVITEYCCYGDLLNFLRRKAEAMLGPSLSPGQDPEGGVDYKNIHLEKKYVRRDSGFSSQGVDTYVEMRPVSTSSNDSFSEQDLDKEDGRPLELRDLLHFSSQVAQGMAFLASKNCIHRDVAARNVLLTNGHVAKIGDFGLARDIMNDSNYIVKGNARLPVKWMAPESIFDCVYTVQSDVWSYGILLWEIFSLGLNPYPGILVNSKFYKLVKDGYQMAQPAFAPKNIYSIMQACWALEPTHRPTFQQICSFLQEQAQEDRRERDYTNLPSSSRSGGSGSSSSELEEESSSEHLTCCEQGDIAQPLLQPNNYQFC

Compound	pIC50 (wtKIT [1])	pIC50 (wtKIT [2])	pIC50 (CSF-1R)	pIC50 (PDGFRα)	MDCK-BCRP: Efflux Ratio [3]	MDCK-BCRP: Papp A-B [3]	Solubility (μM) (Kinetic solubility assay)
COC(=O)N1CC(c2nc(-c3ccc(C)c(NC(=O)c4cnc5cc(OC(C)(C)CO)ccn45)c3)no2)C1 [Compound I-228]	6.30 to 7.30	≥ 7.30	≥ 7.30	6.30 to 7.30	22.9	1.08 10^−6 cm/s	** (a solubility greater than 10 μM and less than or equal to 50 μM)
Cc1ccc(-c2noc(C3CCC(=O)N3C)n2)cc1NC(=O)c1cnc2ccccn12 (racemic) [Compound I-326]		6.30 to 7.30	5.30 to 6.30	4.52 to 5.30	28.3	1.07 10^−6 cm/s	* (a solubility greater than 50 μM)
COC(=O)N1CC(c2nc(-c3ccc(C)c(NC(=O)c4cnc5cc(OCCO)ccn45)c3)no2)C1 [Compound I-264]	≥ 7.30	≥ 7.30	≥ 7.30	6.30 to 7.30	24.2	0.71 10^−6 cm/s	** (a solubility greater than 10 μM and less than or equal to 50 μM)
Cc1ccc(-c2noc([C@H]3C[C@@H]3F)n2)cc1NC(=O)c1cnc2ccc(N3CCCC3)cn12 [Compound I-361]		≥ 7.30	≥ 7.30	6.30 to 7.30	0.54	1.1 10^−6 cm/s	**** (a solubility less than or equal to 2 μM)
COC(=O)Cc1nc(-c2ccc(C)c(NC(=O)c3cnc4ccccn34)c2)no1 [Compound I-321]		≥ 7.30	6.30 to 7.30	5.30 to 6.30	3.4	4.73 10^−6 cm/s	**** (a solubility less than or equal to 2 μM)
COC(=O)N1CC(c2nc(-c3ccc(C)c(NC(=O)c4cnn5cc(Br)ccc45)c3)no2)C1 [Compound I-312]		≥ 7.30	≥ 7.30	5.30 to 6.30	1.42	13.3 10^−6 cm/s	**** (a solubility less than or equal to 2 μM)
Cc1ccc(-c2noc(CC3CCCOC3)n2)cc1NC(=O)c1cnc2ccccn12 (racemic) [Compound I-362]		≥ 7.30	6.30 to 7.30	5.30 to 6.30	1.35	8.71 10^−6 cm/s	*** (a solubility greater than 2 μM and less than or equal to 10 μM)
Cc1ccc(-c2noc([C@H]3C[C@@H]3F)n2)cc1NC(=O)c1cnc2cc(Br)ccn12 [Compound I-383]		≥ 7.30	≥ 7.30	6.30 to 7.30	1.74	7.55 10^−6 cm/s	**** (a solubility less than or equal to 2 μM)
Cc1ccc(-c2noc([C@H]3C[C@@H]3F)n2)cc1NC(=O)c1cnc2cc(N3CCCC3)ccn12 [Compound I-365]		≥ 7.30	≥ 7.30	≥ 7.30	1.21	4.73 10^−6 cm/s	*** (a solubility greater than 2 μM and less than or equal to 10 μM)
Cc1ccc(-c2noc(C34COC(C)(C3)C4)n2)cc1NC(=O)c1cnc2ccccn12 [Compound I-344]		≥ 7.30	≥ 7.30	5.30 to 6.30	1.48	11.5 10^−6 cm/s	*** (a solubility greater than 2 μM and less than or equal to 10 μM)
Cc1ccc(-c2noc(C3(CO)CC(F)(F)C3)n2)cc1NC(=O)c1cnc2ccccn12 [Compound I-320]		≥ 7.30	≥ 7.30	6.30 to 7.30	16	1.75 10^−6 cm/s	*** (a solubility greater than 2 μM and less than or equal to 10 μM)
Cc1ccc(-c2noc(C3CC(Oc4ccccc4)C3)n2)cc1NC(=O)c1cnc2ccccn12 (stereo not shown) [Compound I-348]		≥ 7.30	6.30 to 7.30	5.30 to 6.30	2.37	0.13 10^−6 cm/s	*** (a solubility greater than 2 μM and less than or equal to 10 μM)
Cc1ccc(-c2noc(C3CCC(F)C3)n2)cc1NC(=O)c1cnc2ccccn12 (racemic) [Compound I-318]		≥ 7.30	≥ 7.30	6.30 to 7.30	0.93	13.9 10^−6 cm/s	*** (a solubility greater than 2 μM and less than or equal to 10 μM)
Cc1ccc(-c2noc(C34CC(F)(C3)C4)n2)cc1NC(=O)c1cnc2ccccn12 [Compound I-392]		≥ 7.30	≥ 7.30	5.30 to 6.30	2.82	7.51 10^−6 cm/s	*** (a solubility greater than 2 μM and less than or equal to 10 μM)
Cc1nc(-c2ccc(C)c(NC(=O)c3cnc4ccc(N)cn34)c2)no1 [Compound I-219]	≥ 7.30	≥ 7.30	6.30 to 7.30	5.30 to 6.30	37	0.79 10^−6 cm/s	*** (a solubility greater than 2 μM and less than or equal to 10 μM)
CCOC1CC(c2nc(-c3ccc(C)c(NC(=O)c4cnc5ccccn45)c3)no2)C1 (stereo not shown) [Compound I-309]		≥ 7.30	6.30 to 7.30	5.30 to 6.30	1.07	11.3 10^−6 cm/s	*** (a solubility greater than 2 μM and less than or equal to 10 μM)
COC12CC(c3nc(-c4ccc(C)c(NC(=O)c5cnc6ccccn56)c4)no3)(C1)C2 [Compound I-368]		≥ 7.30	6.30 to 7.30	6.30 to 7.30	1.09	15 10^−6 cm/s	**** (a solubility less than or equal to 2 μM)
Cc1ccc(-c2noc(CC(=O)OCc3ccccc3)n2)cc1NC(=O)c1cnc2ccccn12 [Compound I-322]		≥ 7.30	6.30 to 7.30	4.52 to 5.30	2.7	1.38 10^−6 cm/s	**** (a solubility less than or equal to 2 μM)
COC(=O)N1CC(c2nc(-c3ccc(C)c(NC(=O)c4cnn5ccc(C#N)cc45)c3)no2)C1 [Compound I-265]	6.30 to 7.30	6.30 to 7.30	4.52 to 5.30	4.52 to 5.30	19.4	1 10^−6 cm/s	** (a solubility greater than 10 μM and less than or equal to 50 μM)
